# Measured values taken from patent US11524966B1 (Valo Early Discovery, Inc., priority 2017, dated 2022).
# pIC50: −log10 of the molar value.
# Biological target: T1, USP28 (His-tagged USP28-FL-mammalian) (Homo sapiens, UniProt Q96RU2)
# T1 construct: Expression of USP28 (1-1077)-TEV-6*His (pTT5 vector); made in house; host or cells: Expi293f cells (pTT5 vector)
# T1 sequence (Q96RU2 1-1077): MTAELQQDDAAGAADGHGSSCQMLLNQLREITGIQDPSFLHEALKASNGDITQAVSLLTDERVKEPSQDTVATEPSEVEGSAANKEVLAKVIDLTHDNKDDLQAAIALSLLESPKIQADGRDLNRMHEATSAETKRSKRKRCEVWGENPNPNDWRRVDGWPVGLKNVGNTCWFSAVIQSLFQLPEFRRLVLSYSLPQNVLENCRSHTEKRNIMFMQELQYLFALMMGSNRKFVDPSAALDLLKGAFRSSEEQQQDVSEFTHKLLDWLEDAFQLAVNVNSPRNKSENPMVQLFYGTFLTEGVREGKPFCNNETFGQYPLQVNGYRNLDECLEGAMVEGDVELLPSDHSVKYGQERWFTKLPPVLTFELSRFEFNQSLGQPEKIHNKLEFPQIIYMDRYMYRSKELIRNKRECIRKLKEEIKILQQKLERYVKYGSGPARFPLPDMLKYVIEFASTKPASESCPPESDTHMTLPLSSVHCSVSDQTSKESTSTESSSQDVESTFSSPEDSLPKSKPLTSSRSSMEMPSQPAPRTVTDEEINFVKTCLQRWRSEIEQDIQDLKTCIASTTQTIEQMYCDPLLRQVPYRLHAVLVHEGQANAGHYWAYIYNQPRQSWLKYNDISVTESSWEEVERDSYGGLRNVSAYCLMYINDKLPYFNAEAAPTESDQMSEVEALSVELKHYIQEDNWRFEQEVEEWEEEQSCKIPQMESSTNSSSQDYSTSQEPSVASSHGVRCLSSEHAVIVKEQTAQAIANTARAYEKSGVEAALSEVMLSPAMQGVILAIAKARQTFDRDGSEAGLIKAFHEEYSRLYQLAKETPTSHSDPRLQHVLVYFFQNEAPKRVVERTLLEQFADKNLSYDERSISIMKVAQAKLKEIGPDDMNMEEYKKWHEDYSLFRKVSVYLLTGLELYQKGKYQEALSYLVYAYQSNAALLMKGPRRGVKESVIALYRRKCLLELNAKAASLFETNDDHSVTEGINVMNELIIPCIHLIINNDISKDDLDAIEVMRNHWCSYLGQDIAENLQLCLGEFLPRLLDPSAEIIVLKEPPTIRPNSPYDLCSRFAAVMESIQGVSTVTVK
# Test: Ubiquitin-Rhodamine 110 Assay for USP28 Activity, Example A-1(a)
# Assay type: biochemical
# Details: Ubiquitin-Rhodamine 110 assay, Example A-1(a); read-out: USP28 A-1(a) IC50 range
# How it was run: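 Full-length His-tagged USP28 (1-1077, Expi293F-expressed; […]) was preincubated 30 min with compound (25 μM–1.3 nM, 10-point 3-fold) in 20 mM Tris-HCl pH 8.0, 3 mM BME, 0.03% BGG, 0.01% Triton X-100. Ub-Rh110 (25 nM) was then added for 45 min at room temperature, stopped with citric acid, and read by fluorescence (485/535 nm).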
row,SMILES,pIC50
1,"Cc1cnc2c(N)c(C(=O)N[C@H]3CCc4cc(N5CC6COCC(C5)N6)ccc4C3)sc2n1 [Example 456, N-((2S)-6-(3-oxa-7,9-diazabicyclo[3.3.1]nonan-7-yl)-1,2,3,4-tetrahydronaphthalen-2-yl)-7-amino-3-methylthieno[2,3-b]pyrazine-6-carboxamide]",6.70 to 7.30
2,"Cc1cccc2c(C(=O)N[C@H]3COc4cc(N5CCNCC5)ccc4C3)cnn12 [Example 458, (R)-7-methyl-N-(7-(piperazin-1-yl)chroman-3-yl)pyrazolo[1,5-a]pyridine-3-carboxamide]",7.30 to 9.00
3,"CC(=O)N1CCCc2cc(C(=O)N[C@H]3COc4cc(N5CCNCC5)ccc4C3)ccc21 [Example 459, (R)-1-acetyl-N-(7-(piperazin-1-yl)chroman-3-yl)-1,2,3,4-tetrahydroquinoline-6-carboxamide]",< 5.70
4,"O=C(N[C@H]1COc2cc(N3CCNCC3)ccc2C1)c1cnn2ccccc12 [Example 460, (R)-N-(7-(piperazin-1-yl)chroman-3-yl)pyrazolo[1,5-a]pyridine-3-carboxamide]",< 5.70
5,"COc1ccn2ncc(C(=O)N[C@H]3COc4cc(N5CCNCC5)ccc4C3)c2c1 [Example 461, (R)-5-methoxy-N-(7-(piperazin-1-yl)chroman-3-yl)pyrazolo[1,5-a]pyridine-3-carboxamide]",< 5.70
6,"O=C(N[C@H]1COc2cc(N3CCNCC3)ccc2C1)c1cnn2cc(Cl)ccc12 [Example 462, (R)-6-chloro-N-(7-(piperazin-1-yl)chroman-3-yl)pyrazolo[1,5-a]pyridine-3-carboxamide]",< 5.70
7,"Cc1cc(C)n2ncc(C(=O)N[C@H]3COc4cc(N5CCNCC5)ccc4C3)c2n1 [Example 463, (R)-5,7-dimethyl-N-(7-(piperazin-1-yl)chroman-3-yl)pyrazolo[1,5-a]pyrimidine-3-carboxamide]",< 5.70
8,"O=C(N[C@H]1COc2cc(N3CCNCC3)ccc2C1)c1cn2nc(Cl)ccc2n1 [Example 464, (R)-6-chloro-N-(7-(piperazin-1-yl)chroman-3-yl)imidazo[1,2-b]pyridazine-2-carboxamide]",< 5.70
9,"Cc1ccn2ncc(C(=O)N[C@H]3COc4cc(N5CCNCC5)ccc4C3)c2c1 [Example 465, (R)-5-methyl-N-(7-(piperazin-1-yl)chroman-3-yl)pyrazolo[1,5-a]pyridine-3-carboxamide]",< 5.70
10,"O=C(N[C@H]1COc2cc(N3CCNCC3)ccc2C1)c1cnn2cccnc12 [Example 466, (R)-N-(7-(piperazin-1-yl)chroman-3-yl)pyrazolo[1,5-a]pyrimidine-3-carboxamide]",< 5.70
11,"O=C(N[C@H]1COc2cc(N3CCNCC3)ccc2C1)c1ccc(NCc2cccc(Cl)c2)nc1 [Example 467, (R)-6-((3-chlorobenzyl)amino)-N-(7-(piperazin-1-yl)chroman-3-yl)nicotinamide]",5.70 to 6.70
12,"O=C(N[C@H]1COc2cc(N3CCNCC3)ccc2C1)c1ccc(NCc2cccnc2)nc1 [Example 468, (R)-N-(7-(piperazin-1-yl)chroman-3-yl)-6-((pyridin-3-ylmethyl)amino)nicotinamide]",5.70 to 6.70
13,"O=C(N[C@H]1COc2cc(N3CCNCC3)ccc2C1)c1ccc(NCc2cccc(C(F)(F)F)c2)nc1 [Example 469, (R)-N-(7-(piperazin-1-yl)chroman-3-yl)-6-((3-(trifluoromethyl)benzyl)amino)nicotinamide]",6.70 to 7.30
14,"O=C(N[C@H]1COc2cc(N3CCNCC3)ccc2C1)c1ccc(NCc2ccccn2)nc1 [Example 470, (R)-N-(7-(piperazin-1-yl)chroman-3-yl)-6-((pyridin-2-ylmethyl)amino)nicotinamide]",< 5.70
15,"O=C(N[C@H]1COc2cc(N3CCNCC3)ccc2C1)c1ccc(NCc2ccc3c(c2)OCCO3)nc1 [Example 471, (R)-6-(((2,3-dihydrobenzo[b][1,4]dioxin-6-yl)methyl)amino)-N-(7-(piperazin-1-yl)chroman-3-yl)nicotinamide]",5.70 to 6.70
16,"O=C(N[C@H]1COc2cc(N3CCNCC3)ccc2C1)c1ccc(NCc2ccc3c(c2)CCO3)nc1 [Example 472, (R)-6-(((2,3-dihydrobenzofuran-5-yl)methyl)amino)-N-(7-(piperazin-1-yl)chroman-3-yl)nicotinamide]",5.70 to 6.70
17,"CC(=O)Nc1cccc(CNc2ccc(C(=O)N[C@H]3COc4cc(N5CCNCC5)ccc4C3)cn2)c1 [Example 473, (R)-6-((3-acetamidobenzyl)amino)-N-(7-(piperazin-1-yl)chroman-3-yl)nicotinamide]",< 5.70
18,"CCc1cccc2c(C(=O)N[C@H]3COc4cc(N5CCNCC5)ccc4C3)cnn12 [Example 474, 7-ethyl-N-[(3R)-7-(piperazin-1-yl)-3,4-dihydro-2H-1-benzopyran-3-yl]pyrazolo[1,5-a]pyridine-3-carboxamide]",7.30 to 9.00
19,"O=C(N[C@H]1COc2cc(N3CCNCC3)ccc2C1)c1cnn2c(CO)cccc12 [Example 475, 7-(hydroxymethyl)-N-[(3R)-7-(piperazin-1-yl)-3,4-dihydro-2H-1-benzopyran-3-yl]pyrazolo[1,5-a]pyridine-3-carboxamide]",5.70 to 6.70
